# Source: PubChem BioAssay (NCI)
#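 48-hour exposure; five concentrations; linearly interpolated endpoints. At the GI50, growth is halved. Definition used: TGI = concentration required for complete inhibition of growth.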
# How the values were obtained:
# Assay in all cases: NCI anticancer screen, dose series, 48 h
# CAKI-1 renal = tested on: CAKI-1 renal
# EKVX NSCLC = tested on: EKVX NSCLC
# HCC-2998 colon = tested on: HCC-2998 colon
# DU-145 prostate = tested on: DU-145 prostate
# UACC-257 melanoma = tested on: UACC-257 melanoma
# NCI/ADR-RES ovarian = tested on: NCI/ADR-RES ovarian
# HT29 colon = tested on: HT29 colon
# KM12 colon = tested on: KM12 colon
# MCF7 breast = tested on: MCF7 breast
# HS 578T breast = tested on: HS 578T breast
Compound,GI50 (CAKI-1 renal) [µM],TGI (CAKI-1 renal) [µM],GI50 (EKVX NSCLC) [µM],TGI (EKVX NSCLC) [µM],GI50 (HCC-2998 colon) [µM],TGI (HCC-2998 colon) [µM],GI50 (DU-145 prostate) [µM],TGI (DU-145 prostate) [µM],GI50 (UACC-257 melanoma) [µM],TGI (UACC-257 melanoma) [µM],GI50 (NCI/ADR-RES ovarian) [µM],TGI (NCI/ADR-RES ovarian) [µM],GI50 (HT29 colon) [µM],TGI (HT29 colon) [µM],GI50 (KM12 colon) [µM],TGI (KM12 colon) [µM],GI50 (MCF7 breast) [µM],TGI (MCF7 breast) [µM],GI50 (HS 578T breast) [µM],TGI (HS 578T breast) [µM]
F,3220,> 6870,2100,5220,2610,6190,2800,> 6870,2160,4940,2530,> 6870,2110,6180,2610,> 6870,4020,> 6870,–,–
COc1cc2c(cc1O)CC[C@@H]1[C@@H]2CC[C@]2(C)[C@@H](NCCN(C)C)CC[C@@H]12,0.464,0.945,0.341,0.804,0.22,0.716,0.119,0.423,0.114,0.254,–,–,0.101,0.393,–,–,0.127,0.514,0.277,1.1
CC(=O)N[C@@H](Cc1ccc(OP(=O)(O)O)cc1)C(=O)N[C@H]1CCC(=O)N2CCC[C@@H](C(=O)NCc3ccc(Cl)cc3)N2C1=O,> 25,> 25,–,–,> 25,> 25,> 25,> 25,> 25,> 25,> 25,> 25,> 25,> 25,> 25,> 25,> 25,> 25,> 25,> 25
O=C(Nc1ccc(Cl)cc1Cl)C1C(=O)N(c2ccc(Cl)cc2Cl)C(=O)/C1=N\Nc1ccc([N+](=O)[O-])cc1[N+](=O)[O-] (centres undefined),–,> 100,–,> 100,–,> 100,–,–,–,98.7,–,–,–,> 100,–,> 100,–,–,–,–
Nc1ccc2c(c1)C(=O)C(=O)c1c-2nc2ccccn12,–,–,2.04,4.52,2.22,4.09,0.556,1.79,1.08,2.28,1.85,5.98,3.97,34.9,2.13,6.8,1.06,3.07,–,–
